Columns and labels:
[1] = system: Jurkat cells; assay: Cas9 mRNA/sgRNA LNP gene editing, amplicon sequencing indel percentage (CRISPR-DAV); assay type: cell-based; details: LNP formulation dosed at 20 uL into 5,000 Jurkat cells, four day incubation
Protocol: (§1) Lipid nanoparticles (LNPs) were generated by rapid mixing. A mixture containing ionizable lipid, DSPC, cholesterol, and DMG-PEG at a molar ratio of 45:10:44:1, respectively, in ethanol was mixed with an aqueous sample containing Cas9 mRNA and synthetic sgRNA in 100 mM sodium acetate. Molar fractions were maintained for each formulation while varying the ionizable lipid. After formulation, particles immediately neutralized by dilution into Phosphate Buffered Saline (PBS). LNP size was determined using a Wyatt Plate Reader III with default settings.
(§2) Particles were functionally tested using amplicon sequencing. For testing, each formulation was dosed at 20 uL into 5,000 HEK293 FT or Jurkat cells. After a four day incubation cells were lysed and the locus of interested was amplified with PCR primers. These PCR products are then prepared for sequencing and sequenced on a MiSeq. The sequencing data is then processed and analyzed using CRISPR-DAV, which outputs indel percentages. (Table 1) For general reference, see Xuning Wang, Charles Tilford, Isaac Neuhaus, Gabe Mintier, Qi Guo, John N Feder, Stefan Kirov, CRISPR-DAV: CRISPR NGS data analysis and visualization pipeline, Bioinformatics, Volume 33, Issue 23, December 012017, Pages 3811-3812.

[2] = system: HEK293 FT cells; assay: as above; assay type: cell-based; details: LNP formulation dosed at 20 uL into 5,000 HEK293 FT cells, four day incubation
Protocol: as §1, §2

[3] = LNP size (average radius), Wyatt Plate Reader III; assay type: physicochemical; details: LNP of ionizable lipid:DSPC:cholesterol:DMG-PEG 45:10:44:1 with Cas9 mRNA and sgRNA, 0.087 mg/ml each
Protocol: as §1

SMILES | average Radius (nm) rep1 [3] [nm] | average Radius (nm) rep2 [3] [nm] | Indel % rep1 Jurkat [1] [%] | Indel % rep2 Jurkat [1] [%] | Indel % rep1 HEK293 FT [2] [%] | Indel % rep2 Hek [2] [%]
CCCCC/C=C\C/C=C\CCCC1OC(CCN(C)C)OC1CCC/C=C\C/C=C\CCCCC (stereo not drawn) [Lipid 5, {2-[4,5-Bis-((4Z,7Z)-trideca-4,7-dienyl)-[1,3]dioxolan-2-yl]-ethyl}-dimethyl-amine] | 94.25 | 90.275 | 0.11 | 0.1 | 0.09 | 0.12
CCCCC/C=C\C/C=C\CCCCCC1OC(CCN(C)C)OC1CCCCC/C=C\C/C=C\CCCCC (stereo not drawn) [Lipid 6, (2-{4,5-Bis [(6Z,9Z)-pentadeca-6,9-dien-1-yl]-1,3-dioxolan-2-yl}ethyl)dimethylamine] | 98.825 | 91.175 | 13.16 | 18.09 | 30.63 | 8.87
CCCCCCCC/C=C/CCCCCCCC1OC(CCN(C)C)OC1CCCCCCCCCCCCCCCCC (stereo not drawn) [Lipid 7, (2-{4-[(8E)-heptadec-8-en-1-yl]-5-heptadecyl-1,3-dioxolan-2-yl}ethyl)dimethylamine] | 116 | 124.85 | 0.06 | 0.02 | 2.58 | 2.29
CCCCCCCC/C=C\CCCCCCCC1OC(CCN(C)C)OC1CCCCCCCCCCCCCCCCC (stereo not drawn) [Lipid 8, (2-{4-[(8Z)-Heptadec-8-en-1-yl]-5-heptadecyl-1,3-dioxolan-2-yl}ethyl)dimethylamine] | 135.075 | 146.35 | 2.26 | 0.37 | 67.32 | 74.04
CCCCC/C=C/C/C=C/CCCCCCCC1OC(CCN(C)C)OC1CCCCCCC/C=C/C/C=C/CCCCC (stereo not drawn) [Lipid 9, (2-{4,5-Bis [(8E,11E)-heptadeca-8,11-dien-1-yl]-1,3-dioxolan-2-yl}ethyl)dimethylamine] | 105 | 101.525 | 15.29 | 10 | 84.41 | 66.39
CCCCC/C=C\C/C=C\CCCCCCCC1OC(CCCN(C)C)OC1CCCCCCC/C=C\C/C=C\CCCCC (stereo not drawn) [Lipid 11] | 122.675 | 109.475 | 70.3 | 65.07 | 93.59 | 95.87

Second part, led by results:

average Radius (nm) rep1 [3] [nm] | average Radius (nm) rep2 [3] [nm] | SMILES | Indel % rep1 Jurkat [1] [%] | Indel % rep2 Jurkat [1] [%] | Indel % rep1 HEK293 FT [2] [%] | Indel % rep2 Hek [2] [%]
177.3 | 129.475 | CCCCCC=CCC=CCCCCCCCC1OC(CCN(C)C)OC1CCCCCCCCCCCCCCCCC (stereo in doubt) [Lipid 10, (2-{4-[(8Z,11Z)-heptadeca-8,11-dien-1-yl]-5-heptadecyl-1,3-dioxolan-2-yl}ethyl)dimethylamine] | 1.75 | 1.04 | 51.22 | 63.9
142.825 | 136.875 | CCCCCCCC/C=C/CCCCCCCC1OC(CCN(C)C)OC1CCCCCCC/C=C/CCCCCCCC (stereo not drawn) [Lipid 2, (2-{4,5-Bis [(8E)-heptadec-8-en-1-yl]-1,3-dioxolan-2-yl}ethyl)dimethylamine] | 0.15 | 0.09 | 16.5 | 41.5
92.55 | 91.525 | CCCCCCCC/C=C\CCCCCCCC1OC(CCN(C)C)OC1CCCCCCC/C=C\CCCCCCCC (stereo not drawn) [Lipid 3, (2-{4,5-Bis [(8Z)-heptadec-8-en-1-yl]-1,3-dioxolan-2-yl}ethyl)dimethylamine] | 77.31 | 66.37 | 92.23 | 90.92
153.05 | 150.55 | CCCCC/C=C\C/C=C\CCCCCCCC1OC(CCN(C)C)OC1CCCCCCCCCCCCCCCCC (stereo not drawn) [Lipid 4, (2-{4-[(8Z,11Z)-heptadeca-8,11-dien-1-yl]-5-heptadecyl-1,3-dioxolan-2-yl}ethyl)dimethylamine] | 34.09 | 19.69 | 53.08 | 62.46

— patent US20240390284A1, “IONIZABLE LIPIDS” (BRISTOL-MYERS SQUIBB COMPANY, priority 2023, published 2024)
